Laboratory results published in PMC7247319, “The mitochondria-targeted peptide SS-31 binds lipid bilayers and modulates surface electrostatics as a key component of its mechanism of action” (The Journal of Biological Chemistry, 2020).
Where a SMILES comes first, the peptide text is derived from it. [ ]: non-standard residue; d: D form. Dmt = Cc1cc(O)cc(C)c1C[C@H](N)C(=O)O

How the values were obtained:
isolated mitochondria [1] = assay: 31P ssNMR of mitochondrial membrane integrity under calcium stress; set-up: species or system S. cerevisiae
Procedure: (§1) Figure 7. SS peptide effects on Ca^2+-membrane interactions and mitochondrial cation stress. A, profiles of surface potential decay (top) and ion distribution (bottom) based on GCS theory in the presence or absence of SS-31 (see supporting Results H for model description). B, effect of SS peptides on Ca^2+ accumulation at model membrane interfaces. Time course measurements of CG-5N emission were performed in solutions with LUVs (20 mol % TOCL in host POPC background, [lipid]^eff = 100 μM) prebound with SS peptide at the indicated concentration followed by titration of CaCl2 in increments of 1 nmol at 20-s intervals starting at t = 60 s. C and D, effect of SS peptides on mitochondrial Ca^2+ uptake. […] Spectral deconvolution yielded the indicated components (see Fig. S19, A and B), which were used to quantify the area ratios of L2/iso in F (values shown are means ± S.D. (error bars) (n = 3). G, respirometry analysis. Mitochondria (1 mg ml^−1) were treated in the absence or presence of SS-31 (54.4 μM) or CaCl2 (1 mM) as indicated and measured for state 2 respiration (n = 10–12 each).
(§2) Finally, we measured the effects of SS peptides on mitochondrial calcium stress that may occur independently of Ca^2+ uptake into the matrix. […] To corroborate these findings, we measured mitochondrial oxygen consumption rates under similar conditions of SS peptide treatment and calcium stress. […]

isolated mitochondria [2] = assay: Respirometry (oxygen consumption) of mitochondria under calcium stress; set-up: species or system S. cerevisiae; settings: mitochondria 1 mg ml^−1, SS-31 54.4 μM, CaCl2 1 mM, preincubated on ice 20 min; n = 10–12
Procedure: as §1, §2

SMILES: Cc1cc(O)cc(C)c1C[C@H](NC(=O)[C@H](N)CCCNC(=N)N)C(=O)N[C@@H](CCCCN)C(=O)N[C@@H](Cc1ccccc1)C(N)=O [SS-31, D-Arg-2′6′-dimethyl-Tyr-Lys-Phe-NH2] (H-[dR][Dmt]KF-NH2)
- effect on NMR-detected membrane degradation caused by high calcium load (isolated mitochondria [1]; acute treatment 8.5 nmol of peptide/mg of mitochondrial protein (0.6 mM, 70 mg ml^−1), up to 5 mM CaCl2, 4 °C): reduced NMR-detected membrane degradation
- effect on L2 peak (lamellar phospholipid bilayers), L2/iso area ratio (isolated mitochondria [1]; spectral deconvolution, 5 mM CaCl2, n = 3): significant preservation of the L2 peak
- effect on calcium-induced increase in basal (state 2) respiration (isolated mitochondria [2]): prevented
